Biological target: Substance-P receptor (Bos taurus)
Assay: Binding affinity was measured against the Tachykinin receptor 1 in bovine retina using [3H]SP

Row | Structure (SMILES) | IC50 [nM]
1 | Cc1cc(C)cc(C(=O)N[C@H]2CCN(C(=O)c3cc(Cl)cc(Cl)c3)[C@H](Cc3ccccc3)C2)c1 | 25.7
2 | Cc1cc(C)cc(C(=O)N2CC[C@H](NCCc3ccccc3)C[C@H]2Cc2ccccc2)c1 [CGP-47899] | 15.1

— BindingDB's records for doi:10.1021/jm9700171 (Washington University, 1998)
